# Measured values: patent US11370785B2, “Multicyclic compounds as farnesoid X receptor modulators” (BRISTOL-MYERS SQUIBB COMPANY, priority 2017, dated 2022)
# Target: T1, human FXR (Homo sapiens, UniProt Q96RI1)
# T1 construct: expressed in transfected cells; host or cells: HEK293 cells stably carrying a 5xGal4-response-element firefly luciferase reporter, transiently transfected with the pcDNA3.1-Gal4-FXR plasmid
# T1 sequence (Q96RI1 262-486 limits assumed): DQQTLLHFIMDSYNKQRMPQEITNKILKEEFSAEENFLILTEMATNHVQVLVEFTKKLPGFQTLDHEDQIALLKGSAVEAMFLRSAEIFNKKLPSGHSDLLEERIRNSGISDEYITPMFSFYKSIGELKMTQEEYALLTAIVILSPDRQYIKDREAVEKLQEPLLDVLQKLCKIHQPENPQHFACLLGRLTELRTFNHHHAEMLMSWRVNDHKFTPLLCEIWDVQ
# Assay: transient human FXR/Gal4-luciferase reporter assay
# Format: cell-based
# Details: Gal4-hFXR reporter in HEK293 cells; read-out: HLE GAL-FXR EC50
# Description: The exemplified compounds of the present invention were tested in the transient human FXR/Gal4-luciferase reporter assay, and assay results were reported in Table 1 together with other analytical data.
# A Gal4-hFXR fusion construct reporter system was used as the primary assay to characterize compound activity. A construct including 5 copies of the Gal4 promoter response element upstream of a firefly luciferase reporter cDNA was stably expressed in HEK293 cells. This reporter cell line was maintained in Dulbecco's Modified Eagle's medium (DMEM; Gibco) supplemented with 1% penicillin-streptomycin (P/S) solution, 500 μg/mL Zeocin and 10% charcoal/dextran-treated fetal bovine serum (cs-FBS) at 37° C. in a humidified 5% CO2 atmosphere. Another plasmid was constructed in which the human cytomegalovirus promoter in the pcDNA3.1 vector directs the expression of the cDNA encoding a fusion protein comprised of the DNA binding domain from the Gal4 transcription factor fused to the ligand binding domain from human FXR.
# The day prior to transfection, the reporter cells in culture are detached from the plate with trypsin and plated into a T75 flask at a sufficient density to achieve approximately 90% confluence the next morning. The transfection reagents are prepared by separately diluting 25 μg of the pcDNA3.1-Gal4-FXR plasmid into 1.87 mL of Opti-MEM (Thermo-Fisher), and 40 μL of Lipofectamine 2000 (Thermo-Fisher) into 1.87 mL of Opti-MEM, and then adding the diluted DNA solution into the diluted Lipofectamine 2000 solution and incubating at room temperature for 15-20 minutes. The mixture is further diluted with 10 mL of a solution comprised of DMEM, 10% cs-FBS, and 1% P/S immediately prior to transferring to the cells. The maintenance culture media is aspirated from the cells and the final transfection mixture is added before the cells are incubated overnight at 37° C. in a humidified 5% CO2 atmosphere. This protocol can be scaled up, and the transiently transfected cells can be cryopreserved in an assay-ready format.
# For compound testing, 100 nL of the compounds (serial dilutions in DMSO) are dispensed with an Echo acoustic dispenser (Labcyte) into the wells of a Corning/Costar clear bottom 384-well white plate. The transfected cells are harvested, counted, and diluted such that 10-25,000 cells in 25 μL are plated into each well of the 384-well compound assay plate. The compound-treated cells are incubated overnight at 37° C. in a humidified 5% CO2 atmosphere. The next morning 25 μL of Steady-Glo (Promega) are added to each well of the plate, the mixture is incubated for 15 min. with shaking, and luminescence is measured on an Envision (Perkin Elmer) plate reader. Background counts from cells treated with DMSO alone are subtracted from all raw counts, and the corrected values are converted to a percentage of the control response attained with 8 μM GW-4064.
row,EC50,SMILES
1,47 nM,"O=C(O)c1ccc2cc(N3CCC4(CC3)CC(=Cc3c(-c5c(Cl)cccc5Cl)noc3C3CC3)C4)ccc2n1 [Example 2, 6-(2-((5-Cyclopropyl-3-(2,6-dichlorophenyl)isoxazol-4-yl)methylene)-7-azaspiro[3.5]nonan-7-yl)quinoline-2-carboxylic acid]"

# Same assay, conditions: Gal4-hFXR reporter in HEK293 cells; relative to 8 μM GW-4064; read-out: FXR EC50
row,SMILES,EC50
1,Cc1cccc(Cl)c1-c1noc(C2CC2)c1C=C1CC2(CCN(c3ccc4nc(C(=O)O)ccc4c3)CC2)C1 [Example 56],152 nM
2,Cc1cccc(Cl)c1-c1noc(C2CC2)c1C=C1CC2(CCN(S(=O)(=O)c3cccc(C(=O)O)c3)CC2)C1 [Example 63],661 nM
3,O=C(O)c1cc2ccc(N3CCC4(CC3)CC(Cc3c(-c5c(Cl)cccc5Cl)noc3C3CC3)C4)cc2nn1 [Example 65],204 nM
4,CCOc1cc(C(=O)O)ncc1N1CCC2(CC1)CC(=Cc1c(-c3ccccc3C(F)(F)F)noc1C1CC1)C2 [Example 141],442 nM
5,O=C(O)c1cc(C(F)(F)F)c2cc(N3CCC4(CC3)CC(=Cc3c(-c5ccccc5OC(F)(F)F)noc3C3CC3)C4)ccc2n1 [Example 25],23 nM
6,O=C(O)c1cc2ccc(N3CCC4(CC3)CC(=Cc3c(-c5c(Cl)cccc5Cl)noc3C3CC3)C4)cc2nn1 [Example 54],267 nM
7,O=C(O)c1cc(OC2CCC2)c2cc(N3CCC4(CC3)CC(Cc3c(-c5ccccc5OC(F)(F)F)noc3C3CC3)C4)ccc2n1 [Example 116],14 nM
8,O=C(O)c1cc2ccc(N3CCC4(CC3)CC(=Cc3c(-c5ccccc5C(F)(F)F)noc3C3CC3)C4)cc2nn1 [Example 36],878 nM
9,O=C(O)c1ccc2cc(N3CCC4(CC3)CC(=Cc3c(-c5c(Cl)cccc5Cl)noc3C3CC3)C4)ccc2c1 [Example 47],53 nM
10,O=C(O)c1cccc(N2CCC3(CC2)CC(Cc2c(-c4c(Cl)cccc4Cl)noc2C2CC2)C3)n1 [Example 12],2190 nM
11,O=C(O)c1cc(F)c2nc(N3CCC4(CC3)CC(Cc3c(-c5c(Cl)cccc5Cl)noc3C3CC3)C4)sc2c1 [Example 11],44 nM
12,O=C(O)c1cc(C(F)(F)F)c2cc(N3CCC4(CC3)CC(=Cc3c(-c5ccncc5C(F)(F)F)noc3C3CC3)C4)ccc2n1 [Example 128],19 nM
13,Clc1cccc(Cl)c1-c1noc(C2CC2)c1C=C1CC2(CCN(c3cccc(-c4nn[nH]n4)c3)CC2)C1 [Example 51],1080 nM

# Now from value to molecule:
row,EC50,SMILES
1,6 nM,O=C(O)c1cc(O[C@H]2CCOC2)c2cc(N3CCC4(CC3)CC(Cc3c(-c5ccccc5C(F)(F)F)noc3C3CC3)C4)ccc2n1 [Example 152]
2,24 nM,COCCN(C)C(=O)c1cc(OC2CCC2)c2cc(N3CCC4(CC3)CC(Cc3c(-c5ccccc5C(F)(F)F)noc3C3CC3)C4)ccc2n1 [Example 182]
3,12 nM,O=C(O)c1cc(OC2CCOC2)c2cc(N3CCC4(CC3)CC(Cc3c(-c5ccccc5C(F)(F)F)noc3C3CC3)C4)ccc2n1 (stereo not shown) [Example 151]
4,6 nM,O=C(O)c1cc(OCC(F)F)c2cc(N3CCC4(CC3)CC(Cc3c(-c5ccccc5C(F)(F)F)noc3C3CC3)C4)ccc2n1 [Example 149]
5,110 nM,O=C(O)c1cc(F)c2nc(N3CCC4(CC3)CC(=Cc3c(-c5c(Cl)cncc5Cl)noc3C(F)(F)F)C4)sc2c1 [Example 150]
6,27 nM,COc1cc(C(=O)O)nc2ccc(N3CCC4(CC3)CC(=Cc3c(-c5c(Cl)cncc5Cl)noc3C(F)(F)F)C4)cc12 [Example 161]
7,189 nM,CCOc1cc(C(N)=O)ncc1N1CCC2(CC1)CC(=Cc1c(-c3ccccc3C(F)(F)F)noc1C1CC1)C2 [Example 142]
8,540 nM,O=C(O)c1ccc(S(=O)(=O)N2CCC3(CC2)CC(Cc2c(-c4c(Cl)cccc4Cl)noc2C2CC2)C3)cc1 [Example 174]
9,76 nM,O=C(c1cc(OC2CCC2)c2cc(N3CCC4(CC3)CC(Cc3c(-c5ccccc5C(F)(F)F)noc3C3CC3)C4)ccc2n1)N1CCCC1 [Example 188]
10,1700 nM,C=Cc1cncc(C=C)c1-c1noc(C2CC2)c1C=C1CC2(CCN(c3nc4c(F)cc(C(=O)O)cc4s3)CC2)C1 [Example 165]
11,112 nM,CCOc1cc(C(N)=O)ncc1N1CCC2(CC1)CC(=Cc1c(-c3c(Cl)cncc3Cl)noc1C1CC1)C2 [Example 146]
